Reference: patent publication US9695133B2, “Quinazolinone-based oncogenic-RAS-selective lethal compounds and their use” (THE TRUSTEES OF COLUMBIA UNIVERSITY IN THE CITY OF NEW YORK, priority 2012, dated 2017)

Tested on: HT-1080 cells
Assay: Metabolite profiling (LC-MS/MS) upon erastin treatment
Format: cell-based, human
Settings: 5 μg/mL erastin 5 h
Description: 2 million HT-1080 cells were seeded in 10 cm culture dishes. […] 4 mL of cold 80% methanol was added to the cell monolayer to extract polar metabolites using a cell scraper. The cell lysate/methanol mixture was transferred to a 15 mL tube and centrifuged at 2,000×g at 4° C. for 10 minutes to pellet debris and proteins. The supernatant was transferred to a new tube and stored at −80° C. for liquid chromatography-mass spectrometry/mass spectrometry (LC-MS/MS) analysis. For lipid extract preparation, 3 mL of cold 100% isopropanol was added to the cell monolayer to scrape out cells. The resulting cell lysate/isopropanol mixture was transferred to a new 15 mL tube and centrifuged at 2,000×g at 4° C. for 10 minutes. The cleared supernatant was transferred to a new tube and stored at −20° C. for LC-MS/MS analysis.
The metabolite extract was subjected to LC-MS/MS analysis to determine the quantity of each metabolite in each sample.

SMILES: CCOc1ccccc1-n1c(C(C)N2CCN(C(=O)COc3ccc(Cl)cc3)CC2)nc2ccccc2c1=O (stereo not drawn) [erastin]
- C36:1 DAG Erastin/DMSO: 0.9334
- C36:1 DAG log2 (Erastin/DMSO): −0.09938
- C36:1 PC Erastin/DMSO: 0.6286
- C36:1 PC log2 (Erastin/DMSO): −0.6697
- C36:1 PE Erastin/DMSO: 0.9953
- C36:1 PE log2 (Erastin/DMSO): −0.006813
- C36:2 DAG Erastin/DMSO: 0.9163
- C36:2 DAG log2 (Erastin/DMSO): −0.1261
- C36:2 PC Erastin/DMSO: 0.8729
- C36:2 PC log2 (Erastin/DMSO): −0.1962
- C36:2 PE Erastin/DMSO: 0.9352
- C36:2 PE log2 (Erastin/DMSO): −0.09672
- C36:2 PI Erastin/DMSO: 1.021
- C36:2 PI log2 (Erastin/DMSO): 0.02948
- C36:3 DAG Erastin/DMSO: 1.092
- C36:3 DAG log2 (Erastin/DMSO): 0.1266
- C36:3 PC Erastin/DMSO: 0.9251
- C36:3 PC log2 (Erastin/DMSO): −0.1124
- C36:4 PC Erastin/DMSO: 0.9027
- C36:4 PC log2 (Erastin/DMSO): −0.1477
- C36:4 PI Erastin/DMSO: 1.395
- C36:4 PI log2 (Erastin/DMSO): 0.4801
- C38:2 PC Erastin/DMSO: 0.8405
- C38:2 PC log2 (Erastin/DMSO): −0.2507
- C38:3 PC Erastin/DMSO: 0.6597
- C38:3 PC log2 (Erastin/DMSO): −0.6001
- C38:4 PC Erastin/DMSO: 0.6814
- C38:4 PC log2 (Erastin/DMSO): −0.5533
- C38:4 PI Erastin/DMSO: 0.9823
- C38:4 PI log2 (Erastin/DMSO): −0.02583
- C38:5 PC Erastin/DMSO: 0.8836
- C38:5 PC log2 (Erastin/DMSO): −0.1786
- C38:6 PC Erastin/DMSO: 0.9708
- C38:6 PC log2 (Erastin/DMSO): −0.0428
- C44:0 TAG Erastin/DMSO: 0.9683
- C44:0 TAG log2 (Erastin/DMSO): −0.04648
- C44:1 TAG Erastin/DMSO: 1.639
- C44:1 TAG log2 (Erastin/DMSO): 0.7127
- C46:0 TAG Erastin/DMSO: 0.9424
- C46:0 TAG log2 (Erastin/DMSO): −0.08557
- C46:1 TAG Erastin/DMSO: 1.171
- C46:1 TAG log2 (Erastin/DMSO): 0.2276
- C46:2 TAG Erastin/DMSO: 1.542
- C46:2 TAG log2 (Erastin/DMSO): 0.6247
- C48:0 TAG Erastin/DMSO: 1.098
- C48:0 TAG log2 (Erastin/DMSO): 0.1354
- C48:1 TAG Erastin/DMSO: 1.059
- C48:1 TAG log2 (Erastin/DMSO): 0.08209
- C48:2 TAG Erastin/DMSO: 1.121
- C48:2 TAG log2 (Erastin/DMSO): 0.1647
- C48:3 TAG Erastin/DMSO: 1.52
- C48:3 TAG log2 (Erastin/DMSO): 0.6042
- C50:0 TAG Erastin/DMSO: 0.9625
- C50:0 TAG log2 (Erastin/DMSO): −0.05513
- C50:1 TAG Erastin/DMSO: 1.011
- C50:1 TAG log2 (Erastin/DMSO): 0.01634
- C50:2 TAG Erastin/DMSO: 1.073
- C50:2 TAG log2 (Erastin/DMSO): 0.1023
- C50:3 TAG Erastin/DMSO: 1.241
- C50:3 TAG log2 (Erastin/DMSO): 0.3115
- C50:4 TAG Erastin/DMSO: 1.682
- C50:4 TAG log2 (Erastin/DMSO): 0.7502
- C50:5 TAG Erastin/DMSO: 1.277
- C50:5 TAG log2 (Erastin/DMSO): 0.3528
- C52:0 TAG Erastin/DMSO: 1.041
- C52:0 TAG log2 (Erastin/DMSO): 0.05755
- C52:1 TAG Erastin/DMSO: 0.897
- C52:1 TAG log2 (Erastin/DMSO): −0.1568
- C52:2 TAG Erastin/DMSO: 0.9964
- C52:2 TAG log2 (Erastin/DMSO): −0.005196
- C52:3 TAG Erastin/DMSO: 1.124
- C52:3 TAG log2 (Erastin/DMSO): 0.168
- C52:4 TAG Erastin/DMSO: 1.305
- C52:4 TAG log2 (Erastin/DMSO): 0.3844
- C52:5 TAG Erastin/DMSO: 1.279
- C52:5 TAG log2 (Erastin/DMSO): 0.355
- C52:6 TAG Erastin/DMSO: 1.602
- C52:6 TAG log2 (Erastin/DMSO): 0.6796
- C54:1 TAG Erastin/DMSO: 0.8628
- C54:1 TAG log2 (Erastin/DMSO): −0.2129
- C54:2 TAG Erastin/DMSO: 0.8696
- C54:2 TAG log2 (Erastin/DMSO): −0.2016
- C54:3 TAG Erastin/DMSO: 0.9692
- C54:3 TAG log2 (Erastin/DMSO): −0.04517
- C54:4 TAG Erastin/DMSO: 1.178
- C54:4 TAG log2 (Erastin/DMSO): 0.2363
- C54:5 TAG Erastin/DMSO: 1.315
- C54:5 TAG log2 (Erastin/DMSO): 0.3952
- C54:6 TAG Erastin/DMSO: 1.267
- C54:6 TAG log2 (Erastin/DMSO): 0.3411
- C54:7 TAG Erastin/DMSO: 1.062
- C54:7 TAG log2 (Erastin/DMSO): 0.08689
- C54:8 TAG Erastin/DMSO: 0.9067
- C54:8 TAG log2 (Erastin/DMSO): −0.1413
- C54:9 TAG Erastin/DMSO: 1.331
- C54:9 TAG log2 (Erastin/DMSO): 0.4129
- C54:10 TAG Erastin/DMSO: 0.8851
- C54:10 TAG log2 (Erastin/DMSO): −0.1761
- C56:2 TAG Erastin/DMSO: 0.9703
- C56:2 TAG log2 (Erastin/DMSO): −0.04354
- C56:3 TAG Erastin/DMSO: 0.8103
- C56:3 TAG log2 (Erastin/DMSO): −0.3035
- C56:4 TAG Erastin/DMSO: 0.9505
- C56:4 TAG log2 (Erastin/DMSO): −0.07326
- C56:5 TAG Erastin/DMSO: 1.134
- C56:5 TAG log2 (Erastin/DMSO): 0.1814
- C56:6 TAG Erastin/DMSO: 1.047
- C56:6 TAG log2 (Erastin/DMSO): 0.06693
- C56:7 TAG Erastin/DMSO: 1.062
- C56:7 TAG log2 (Erastin/DMSO): 0.08653
- C56:8 TAG Erastin/DMSO: 1.178
- C56:8 TAG log2 (Erastin/DMSO): 0.2368
- C56:9 TAG Erastin/DMSO: 0.9865
- C56:9 TAG log2 (Erastin/DMSO): −0.01961
- C56:10 TAG Erastin/DMSO: 0.9129
- C56:10 TAG log2 (Erastin/DMSO): −0.1315
- C58:6 TAG Erastin/DMSO: 1.047
- C58:6 TAG log2 (Erastin/DMSO): 0.06641
- C58:7 TAG Erastin/DMSO: 1.071
- C58:7 TAG log2 (Erastin/DMSO): 0.09945
- C58:8 TAG Erastin/DMSO: 1.118
- C58:8 TAG log2 (Erastin/DMSO): 0.1603
- C58:9 TAG Erastin/DMSO: 1.176
- C58:9 TAG log2 (Erastin/DMSO): 0.2336
- CMP Erastin/DMSO: 0.9376
- CMP log2 (Erastin/DMSO): −0.09295
- DHAP Erastin/DMSO: 1.227
- DHAP log2 (Erastin/DMSO): 0.2955
- F1P Erastin/DMSO: 0.9652
- F1P log2 (Erastin/DMSO): −0.05103
- F16DP/F26DP/G16DP Erastin/DMSO: 1.303
- F16DP/F26DP/G16DP log2 (Erastin/DMSO): 0.3816
